Several values for one entry are separate records, joined by “and”; a condition that tells them apart may be missing. Equal values may be shown once. Values belong to the compound of their own block, whether it stands above or below them.
Assay: photoluminescence quantum yield (fraction); solvent given as SMILES

Compound: CC[n+]1nc2ccc(N(C)C)cc2c2cc(C)ccc21
photoluminescence quantum yield (in O): 0.003

Compound: CCCCC1(c2ccc(OC)cc2)Nc2ccccc2N=C1c1ccc(OC)cc1 (centres undefined)
photoluminescence quantum yield (in ClC(Cl)Cl): 0.52

Compound: Cc1cc(C(F)(F)F)nc2c1ccc1nc(-c3ccc(F)c(F)c3)cn12
photoluminescence quantum yield (in CC#N): 0.84 | photoluminescence quantum yield (in CCCCOC(C)=O): 0.78 | photoluminescence quantum yield (in CO): 0.83 | photoluminescence quantum yield (in ClC(Cl)Cl): 0.96

Compound: COc1ccc(N(c2ccccc2)c2ccccc2)cc1
photoluminescence quantum yield (in Cc1ccccc1): 0.03

Compound: Cc1ccc(/C2=c3\cc/c(o3)=C(\c3ccc(C)cc3)c3ccc([nH]3)-c3ccc4n3[P-](=O)(=O)[N+]3=C(C=CC3=C4c3ccco3)c3ccc2[nH]3)cc1
photoluminescence quantum yield (in ClC(Cl)Cl): 0.09

Compound: CC(C)(C)c1ccc(C2=C(c3ccc(N4c5ccccc5C(C)(C)c5ccccc54)cc3)S(=O)(=O)c3c2sc(-c2ccc(N4c5ccccc5C(C)(C)c5ccccc54)cc2)c3-c2ccc(C(C)(C)C)cc2)cc1
photoluminescence quantum yield (in C1CCOC1): 0.021

Compound: CCn1c(-c2ccc(-c3ccc(-c4ccc(-c5n(CC)c6cc(C)ccc6[n+]5CC)cc4)cc3)cc2)[n+](CC)c2ccc(C)cc21
photoluminescence quantum yield (in O): 0.72

Compound: CC(C)(C)c1ccc(C#Cc2c(C#Cc3ccc(C(C)(C)C)cc3)c3cccc4c(C#Cc5ccc(C(C)(C)C)cc5)c(C#Cc5ccc(C(C)(C)C)cc5)c5cccc2c5c34)cc1
photoluminescence quantum yield (in ClCCl): 0.7

Compound: COc1ccccc1-n1nc(C#N)c(N2CCCC2)n1
photoluminescence quantum yield (in CC#N): 0.456

Compound: Cc1ccccc1[B-]1(c2ccccc2C)n2nc(C(F)(F)F)cc2-c2c3ccccc3cc[n+]21
photoluminescence quantum yield (in C1CCCCC1): 0.0285 | photoluminescence quantum yield (in Cc1ccccc1): 0.0259 | photoluminescence quantum yield (in ClCCl): 0.0197

Compound: CCCCCCCCN1c2ccc(C#Cc3ccc(OC)cc3)cc2Sc2cc(C=O)ccc21
photoluminescence quantum yield (in C1CCOC1): 0.54 | photoluminescence quantum yield (in CC#N): 0.34 | photoluminescence quantum yield (in CCCCCC): 0.59 | photoluminescence quantum yield (in CO): 0.07 | photoluminescence quantum yield (in CS(C)=O): 0.91 | photoluminescence quantum yield (in Cc1ccccc1): 0.49 | photoluminescence quantum yield (in ClC(Cl)Cl): 0.58

Compound: CN(C)c1ccc(/C=C/c2nc3c4ccccc4c4ccccc4c3[nH]2)cc1
photoluminescence quantum yield (in C1CCOC1): 0.055 | photoluminescence quantum yield (in C1COCCO1): 0.176 | photoluminescence quantum yield (in CC1CCCCC1): 0.195 | photoluminescence quantum yield (in CC#N): 0.058 | photoluminescence quantum yield (in CCOC(C)=O): 0.048 | photoluminescence quantum yield (in CCOCC): 0.147 | photoluminescence quantum yield (in CN(C)C=O): 0.04 | photoluminescence quantum yield (in COC(C)=O): 0.03 | photoluminescence quantum yield (in CS(C)=O): 0.067 | photoluminescence quantum yield (in Cc1ccccc1): 0.114 | photoluminescence quantum yield (in ClC(Cl)Cl): 0.035

Compound: CCC1=C(C)C2=C(c3c(C)cc(C)nc3-c3cccs3)c3c(C)c(CC)c(C)n3[B-](F)(F)[N+]2=C1C
photoluminescence quantum yield (in C1CCCCC1): 0.53 | photoluminescence quantum yield (in C1CCOC1): 0.46 | photoluminescence quantum yield (in C1COCCO1): 0.49 | photoluminescence quantum yield (in CC#N): 0.45 | photoluminescence quantum yield (in CCCCCC): 0.52 | photoluminescence quantum yield (in CCO): 0.47 | photoluminescence quantum yield (in CCOC(C)=O): 0.47 | photoluminescence quantum yield (in CCOCC): 0.5 | photoluminescence quantum yield (in CN(C)C=O): 0.44 | photoluminescence quantum yield (in CS(C)=O): 0.44 | photoluminescence quantum yield (in Cc1ccccc1): 0.49 | photoluminescence quantum yield (in ClC(Cl)(Cl)Cl): 0.5 | photoluminescence quantum yield (in ClC(Cl)Cl): 0.49

Compound: Cc1ccc(-n2c3ccccc3c3cc(C(=C(C#N)C#N)c4ccccc4)ccc32)cc1
photoluminescence quantum yield (in C1CCOC1): 0.12 | photoluminescence quantum yield (in CC#N): 0.07 | photoluminescence quantum yield (in CC(C)=O): 0.05 | photoluminescence quantum yield (in CCOC(C)=O): 0.09 | photoluminescence quantum yield (in CO): 0.01 | photoluminescence quantum yield (in CS(C)=O): 0.02 | photoluminescence quantum yield (in Cc1ccccc1): 0.14 | photoluminescence quantum yield (in ClC(Cl)Cl): 0.13

Compound: CC(C)(C)c1ccc(-c2cc3c4c(c2)CCc2cc(-c5ccc(C(C)(C)C)cc5)cc(c2-4)CC3)cc1
photoluminescence quantum yield (in C1CCCCC1): 0.61 | photoluminescence quantum yield (in C1CCOC1): 0.68 | photoluminescence quantum yield (in CC#N): 0.55 | photoluminescence quantum yield (in CCCCCC): 0.52 | photoluminescence quantum yield (in CCO): 0.48 | photoluminescence quantum yield (in CN(C)C=O): 0.66 | photoluminescence quantum yield (in CO): 0.39 | photoluminescence quantum yield (in Cc1ccccc1): 1 | photoluminescence quantum yield (in ClC(Cl)Cl): 0.53 | photoluminescence quantum yield (in ClCCl): 1

Compound: CCCC1=Cc2nc1ccc1[nH]c(cc1CCOC)c1nc(ccc3[nH]c2cc3CCC)C(CCOC)=C1
photoluminescence quantum yield (in Cc1ccccc1): 0.54

Compound: CC(C)(C)C1=CC2=C3C(=CC=C4C=CC(c5cc6c7cc(-c8ccc9ccc%10cc(C(C)(C)C)cc%11ccc8c9c%10%11)ccc7c(-c7ccc8ccc9cc(C(C)(C)C)cc%10ccc7c8c9%10)cc6c6cc(-c7ccc8ccc9cc(C(C)(C)C)cc%10ccc7c8c9%10)ccc56)=C(C=C2)C43)C1 (centres undefined)
photoluminescence quantum yield (in ClCCl): 0.874

Compound: C(=C\c1cnc2ccccc2n1)/c1cnccn1
photoluminescence quantum yield (in CCCCCC): 0.0014 | photoluminescence quantum yield (in CCO): 0.0012 | photoluminescence quantum yield (in CO): 0.001 | photoluminescence quantum yield (in ClCCl): 0.0014 | photoluminescence quantum yield (in c1ccccc1): 0.0015

Compound: CCCCOc1ccc(/C=C/C=C/C=C/c2ccc([N+](=O)[O-])cc2)cc1
photoluminescence quantum yield (in CC1CCCCC1): 0.25 | photoluminescence quantum yield (in CC#N): 0.014 | photoluminescence quantum yield (in Cc1ccccc1): 0.53 | photoluminescence quantum yield (in ClCCl): 0.06

Compound: CC(C)c1cccc(C(C)C)c1-n1c(=O)c2cc3nc(-c4ccccc4)c4cc5c(=O)n(-c6c(C(C)C)cccc6C(C)C)c(=O)c6cc7nc(-c8ccccc8)c8cc(c1=O)c2c1c3c4c(c65)c7c81
photoluminescence quantum yield (in ClC(Cl)Cl): 0.25

Compound: COc1ccc(-n2nc(C#N)c(N3CCCC3)n2)cc1OC
photoluminescence quantum yield (in CC#N): 0.996

Compound: Cc1nc(-c2ccc(-n3c4ccccc4c4ccccc43)cc2)cc(-c2ccc(-n3c4ccccc4c4ccccc43)cc2)n1
photoluminescence quantum yield (in C1CCOC1): 0.61 | photoluminescence quantum yield (in CN(C)C=O): 0.73 | photoluminescence quantum yield (in Cc1ccccc1): 0.65 | photoluminescence quantum yield (in ClC(Cl)Cl): 0.61

Compound: c1ccc(C2(c3ccccc3)c3ccc4ccc5ccccc5c4c3-c3c2ccc2ccc4ccccc4c32)cc1
photoluminescence quantum yield (in ClCCl): 0.4

Compound: COc1ccc(C#Cc2ncc(-c3ccccc3)o2)cc1OC
photoluminescence quantum yield (in ClCCl): 0.04

Compound: C(=C\c1cc(/C=C/c2ccc(-n3c4ccccc4c4ccccc43)cc2)cc(/C=C/c2ccc(-n3c4ccccc4c4ccccc43)cc2)c1)/c1ccc(-n2c3ccccc3c3ccccc32)cc1
photoluminescence quantum yield (in C1CCOC1): 0.8 | photoluminescence quantum yield (in CC#N): 0.83 | photoluminescence quantum yield (in Cc1ccccc1): 0.59 | photoluminescence quantum yield (in ClCCl): 0.75

Compound: CN(C)c1ccc(-c2cc(=O)c3ccccc3o2)cc1
photoluminescence quantum yield (in C1CCCCC1): 0.007 | photoluminescence quantum yield (in C1CCOC1): 1 | photoluminescence quantum yield (in CC#N): 1 and 0.96 | photoluminescence quantum yield (in CCOC(C)=O): 1 | photoluminescence quantum yield (in CCOCC): 0.87 | photoluminescence quantum yield (in CO): 0.095 | photoluminescence quantum yield (in Cc1ccccc1): 0.76

Compound: CC(C)(C)c1ccc2c(c1)c1cc(C(C)(C)C)ccc1n2-c1cc(C(=O)c2ccccc2)cc(-n2c3ccc(C(C)(C)C)cc3c3cc(C(C)(C)C)ccc32)c1
photoluminescence quantum yield (in Cc1ccccc1): 0.073 | photoluminescence quantum yield (in c1cc(-c2cccc(-n3c4ccccc4c4ccccc43)c2)cc(-n2c3ccccc3c3ccccc32)c1): 0.75

Compound: CCCCCCCCCC1(CCCCCCCCC)c2cc(C#Cc3ccc(C#Cc4ccc(N(CCCCCC)CCCCCC)cc4)cc3)ccc2-c2ccc(C#Cc3ccc(C#Cc4ccc(N(CCCCCC)CCCCCC)cc4)cc3)cc21
photoluminescence quantum yield (in Cc1ccccc1): 0.82

Compound: COOCc1noc(-c2ccccc2)c1Cl
photoluminescence quantum yield (in C1CCCCC1): 0.006

Compound: COc1cccc(C2=c3c(c4ccc(C(C)(C)C)cc4c4cc(C(C)(C)C)ccc34)=[N+]3C2=C(c2ccccc2)c2c(-c4cccc(OC)c4)c4c5ccc(C(C)(C)C)cc5c5cc(C(C)(C)C)ccc5c4n2[B-]3(F)F)c1
photoluminescence quantum yield (in C1CCCCC1): 0.62 | photoluminescence quantum yield (in C1CCOC1): 0.5 | photoluminescence quantum yield (in CC#N): 0.52 | photoluminescence quantum yield (in Cc1ccccc1): 0.43 | photoluminescence quantum yield (in ClCCl): 0.54

Compound: CN(C)c1ccc(C2=Cc3c4ccccc4cc[n+]3[B-](F)(F)O2)cc1
photoluminescence quantum yield (in C1CCOC1): 0.658 | photoluminescence quantum yield (in C1COCCO1): 0.863 | photoluminescence quantum yield (in CC1CCCCC1): 0.979 | photoluminescence quantum yield (in CC#N): 0.638 | photoluminescence quantum yield (in CCOC(C)=O): 0.663 | photoluminescence quantum yield (in CCOCC): 0.848 | photoluminescence quantum yield (in CN(C)C=O): 0.561 | photoluminescence quantum yield (in CO): 0.499 | photoluminescence quantum yield (in COC(C)=O): 0.587 | photoluminescence quantum yield (in ClC(Cl)Cl): 0.743

Compound: O=Cc1nc2ccc(C#Cc3ccc(N(c4ccc(C#Cc5ccc6nc(C=O)sc6c5)cc4)c4ccc(C#Cc5ccc6nc(C=O)sc6c5)cc4)cc3)cc2s1
photoluminescence quantum yield (in Cc1ccccc1): 0.65

The remaining lines, values ahead:

photoluminescence quantum yield (in C1CCOC1): 0.01 | photoluminescence quantum yield (in C1COCCO1): 0.01 | photoluminescence quantum yield (in CC#N): 0.01 | photoluminescence quantum yield (in CC(C)O): 0.02 | photoluminescence quantum yield (in CCO): 0.01 | photoluminescence quantum yield (in CCOC(C)=O): 0.01 | photoluminescence quantum yield (in CN(C)C=O): 0.01 | photoluminescence quantum yield (in CS(C)=O): 0.01
Compound: NS(=O)(=O)c1ccc(N2N=C(c3ccc(O)cc3)CC2c2ccc([N+](=O)[O-])cc2)cc1 (centres undefined)

photoluminescence quantum yield (in ClCCl): 0.42
Compound: C[Si]1(C)O[Si](C)(C)c2cc3nc4ccccc4c(-c4ccccc4)c3cc2[Si](C)(C)O1

photoluminescence quantum yield (in ClCCl): 0.12
Compound: O=C(Nc1ccccc1[N+](=O)[O-])c1ccc2oc(-c3cc4ccccc4oc3=O)nc2c1

photoluminescence quantum yield (in ClCCl): 0.65
Compound: CCCCn1c2ccc(C#N)cc2c2cc(C#N)cc(-c3ccc(N(c4ccccc4)c4ccccc4)cc3)c21

photoluminescence quantum yield (in CO): 0.016
Compound: Nc1ccc(C#Cc2ccc3ccc4ccc(C#Cc5ccc(NS(=O)(=O)c6ccc([N+](=O)[O-])cc6[N+](=O)[O-])cc5)c5ccc2c3c45)cc1

photoluminescence quantum yield (in ClC(Cl)Cl): 0.33
Compound: Clc1ccc(-c2nc(-c3ccccc3)sc2N(c2ccccc2)c2ccccc2)cc1

photoluminescence quantum yield (in CS(C)=O): 0.26
Compound: COc1ccc(C2C3=C(CCCC3=O)Nc3c2c(=O)oc2ccccc32)cc1 (centres undefined)

photoluminescence quantum yield (in CCO): 0.049 | photoluminescence quantum yield (in CS(C)=O): 0.023 | photoluminescence quantum yield (in O): 0.007
Compound: CC1(C)C(/C=C/c2cc3ccc(O)cc3oc2=O)=[N+](CCCS(=O)(=O)[O-])c2ccccc21

photoluminescence quantum yield (in ClCCl): 0.48
Compound: Cc1cccc(-c2c3ccccc3cc3ccccc23)n1

photoluminescence quantum yield (in C1CCOC1): 0.039
Compound: O=Cc1ccc(C=C(c2ccccc2)c2ccccc2)cc1

photoluminescence quantum yield (in CC#N): 0.44 | photoluminescence quantum yield (in CO): 0.41 | photoluminescence quantum yield (in ClCCl): 0.46 | photoluminescence quantum yield (in OCC(O)CO): 0.39
Compound: CCCn1c2cccc3oc4cccc5c4[c+](c32)c2c1cccc2n5CCC

photoluminescence quantum yield (in C1CCOC1): 0.216
Compound: O=c1oc2cccc3c4cccc5ccc6c7cc(F)ccc7c1c(c23)c6c54

photoluminescence quantum yield (in CC#N): 0.234 | photoluminescence quantum yield (in CCCCCC): 0.142 | photoluminescence quantum yield (in CO): 0.161 | photoluminescence quantum yield (in ClC(Cl)Cl): 0.312
Compound: c1ccc2c(c1)cc(-c1cc(-c3nccs3)nc(-c3nccs3)c1)c1ccccc12

photoluminescence quantum yield (in ClCCl): 0.31
Compound: CC(C)(C)c1ccc(-c2cnc3cccc(-c4ccccc4)n23)cc1

photoluminescence quantum yield (in CN(C)C=O): 0.392
Compound: Cc1nc2cccc(-c3nc4ccccc4o3)c2c(=O)[nH]1

— the Deep4Chem optical property database
